Laboratory results published in publication PMC11593696, “Discovery of Potent Benzothiazole Inhibitors of Oxidoreductase NQO2, a Target for Inflammation and Cancer” (International Journal of Molecular Sciences, 2024).
Where two headings read alike, the source gives them in different places.

How the values were obtained:
recombinant human NQO2 = biological target: T1, recombinant human NQO2 (Homo sapiens, UniProt P16083); assay: NQO2 enzyme inhibition assay (DCPIP substrate, NRH or EPR co-substrate); assay type: biochemical; settings: for reduction in potency relative to compound 40: removal of the 4-OMe or the 5-OMe from 40
T1 sequence (P16083 1-231): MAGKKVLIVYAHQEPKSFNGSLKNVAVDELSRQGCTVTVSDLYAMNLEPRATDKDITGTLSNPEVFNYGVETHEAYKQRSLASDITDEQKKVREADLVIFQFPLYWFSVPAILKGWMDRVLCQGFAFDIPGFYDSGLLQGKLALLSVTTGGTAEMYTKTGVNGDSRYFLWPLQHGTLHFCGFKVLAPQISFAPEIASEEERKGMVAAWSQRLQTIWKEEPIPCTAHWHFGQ
Protocol: In this assay, dichlorophenolindophenol (DCPIP) was used as a substrate for NQO2. NRH (SI or EP0152R) was used as the co-substrate for the enzyme.
The NQO2 enzyme assay was carried out using a […] GO spectrophotometer by measuring the absorbance of DCPIP at 600 nm. NRH [31] or EPR were used as co-substrates. The experiment was performed using a 96-well plate with a […] final volume using phosphate buffer (50 mM, pH 7.4). The final concentrations were DCPIP 40 µM and NRH or EPR 200 µM. The final enzyme concentration was 100 ng. The assay was performed at 37 °C and initiated through the addition of NQO2. The initial rates of the enzyme reactions were calculated from the curve by taking the initial slopes of the reactions using the formula (ΔAb/ΔTime). The assay of inhibitors was carried out using the same assay conditions. […] Each experiment was performed in triplicate. Rates were converted to the percentage of enzyme activity, and IC50 values were calculated using GraphPad Prism 7.03 software using the non-linear regression function. IC50 values were determined as a 50% decrease in NQO2 activity.

[1] = DCPIP substrate, NRH co-substrate, read-out: IC50 for inhibition of NQO2
[2] = inhibition of NQO2, DCPIP 40 µM, NRH or EPR 200 µM, phosphate buffer pH 7.4, 37 °C, triplicate, read-out: IC50 (µM) ± SD

Compound | melting point [°C] | IC50 (recombinant human NQO2; [1]) [µM] | IC50 (recombinant human NQO2; [2]) [µM] | reduction in potency relative to compound 40 (recombinant human NQO2) [fold] | inhibition of NQO2 enzymatic activity, in words (recombinant human NQO2)
COc1cc(OC)cc(-c2nc3ccc(OC)cc3s2)c1 [Compound 3, 2-(3,5-Dimethoxyphenyl)-6-methoxybenzo[d]thiazole] | 121 to 123 | 0.108 | 0.108 ± 0.012 | 2 | –
COc1cc(OC)cc(-c2nc3ccc(Br)cc3s2)c1 [Compound 4, 6-Bromo-2-(3,5-dimethoxyphenyl)benzo[d]thiazole] | 164 to 165 | – | > 100 | – | –
COc1cc(OC)cc(-c2nc3ccc(Cl)cc3s2)c1 [Compound 6, 6-Chloro-2-(3,5-dimethoxyphenyl)benzo[d]thiazole] | 150 to 151 | – | 82.93 ± 0.04 | – | –
COc1cc(OC)cc(-c2nc3ccc(F)cc3s2)c1 [Compound 8, 2-(3,5-Dimethoxyphenyl)-6-fluorobenzo[d]thiazole] | 138 to 140 | – | > 100 | – | –
COc1cc(OC)cc(-c2nc3ccc(I)cc3s2)c1 [Compound 9, 2-(3,5-Dimethoxyphenyl)-6-iodobenzo[d]thiazole] | 150 to 152 | – | 2.46 ± 0.01 | – | –
COc1cc(OC)cc(-c2nc3ccc([N+](=O)[O-])cc3s2)c1 [Compound 10, 2-(3,5-Dimethoxyphenyl)-6-nitrobenzo[d]thiazole] | 199 to 200 | – | 93.44 ± 0.02 | – | –
COc1cc(OC)cc(-c2nc3ccc(N)cc3s2)c1 [Compound 11, 2-(3,5-Dimethoxyphenyl)benzo[d]thiazol-6-amine] | – | 0.863 | 0.863 ± 0.07 | – | –
COc1cc(OC)cc(-c2nc3ccc(NC(C)=O)cc3s2)c1 [Compound 12, N-(2-(3,5-Dimethoxyphenyl)benzo[d]thiazol-6-yl)acetamide] | 179 to 181 | 0.605 | 0.605 ± 0.06 | – | –
COc1cc(OC)cc(C(=O)Nc2ccc3nc(-c4cc(OC)cc(OC)c4)sc3c2)c1 [Compound 14, N-(2-(3,5-Dimethoxyphenyl)benzo[d]thiazol-6-yl)-3,5-dimethoxybenzamide] | 159 to 162 | – | 1.36 ± 0.06 | – | further loss of activity
Oc1cc(O)cc(-c2nc3ccc(O)cc3s2)c1 [Compound 15, 6-Hydroxy-2-(3,5-dihydroxyphenyl)benzo[d]thiazole] | – | 0.025 | 0.025 ± 0.003 | – | –
COc1ccc(-c2nc3ccc(OC)cc3s2)c(OC)c1 [Compound 16, 2-(2,4-Dimethoxyphenyl)-6-methoxybenzo[d]thiazole] | 150 to 151 | – | 5.86 ± 0.07 | – | –
COc1ccc(-c2nc3ccc(Br)cc3s2)c(OC)c1 [Compound 17, 6-Bromo-2-(2,4-dimethoxyphenyl)benzo[d]thiazole] | 148 to 149 | 56.9 | 56.9 ± 0.02 | – | –
COc1ccc(-c2nc3ccc(C(F)(F)F)cc3s2)c(OC)c1 [Compound 18, 2-(2,4-Dimethoxyphenyl)-6-(trifluoromethyl)benzo[d]thiazole] | – | – | 4.52 ± 0.04 | – | –
COc1ccc(-c2nc3ccc(C#N)cc3s2)c(OC)c1 [Compound 20, 2-(2,4-Dimethoxyphenyl)benzo[d]thiazole-6-carbonitrile] | 235 to 237 | – | > 100 | – | –
COc1ccc(-c2nc3ccc(F)cc3s2)c(OC)c1 [Compound 21, 2-(2,4-Dimethoxyphenyl)-6-fluorobenzo[d]thiazole] | 157 to 158 | – | 3.51 ± 0.08 | – | –
COc1ccc(OC)c(-c2nc3ccc(OC)cc3s2)c1 [Compound 24, 2-(2,5-Dimethoxyphenyl)-6-methoxybenzo[d]thiazole] | – | 0.846 | 0.846 ± 0.02 | – | –
COc1ccc(OC)c(-c2nc3ccc(C(F)(F)F)cc3s2)c1 [Compound 26, 2-(2,5-Dimethoxyphenyl)-6-(trifluoromethyl)benzo[d]thiazole] | – | 2.77 | 2.77 ± 0.01 | – | –
COc1ccc2nc(-c3ccc(OC)c(OC)c3)sc2c1 [Compound 32, 2-(3,4-Dimethoxyphenyl)-6-methoxybenzo[d]thiazole] | – | 1.27 | 1.27 ± 0.03 | 20 | –
COc1ccc(-c2nc3ccc(C(F)(F)F)cc3s2)cc1OC [Compound 34, 2-(3,4-Dimethoxyphenyl)-6-(trifluoromethyl)benzo[d]thiazole] | – | – | > 100 | – | –
COc1ccc(-c2nc3ccc(Cl)cc3s2)cc1OC [Compound 35, 6-Chloro-2-(3,4-dimethoxyphenyl)benzo[d]thiazole] | – | 91.7 | 91.67 ± 0.08 | – | –
COc1ccc(-c2nc3ccc(F)cc3s2)cc1OC [Compound 37, 2-(3,4-Dimethoxyphenyl)-6-fluorobenzo[d]thiazole] | – | 5.93 | 5.93 ± 0.05 | – | –
COc1ccc2nc(-c3cc(OC)c(OC)c(OC)c3)sc2c1 [Compound 40, 6-Methoxy-2-(3,4,5-trimethoxyphenyl)benzo[d]thiazole] | – | 0.051 | 0.051 ± 0.02 | – | –
COc1cc(-c2nc3ccc(I)cc3s2)cc(OC)c1OC [Compound 46, 6-Iodo-2-(3,4,5-trimethoxyphenyl)benzo[d]thiazole] | – | – | 0.106 ± 0.004 | – | –
Fc1cc(F)cc(-c2nc3ccc(F)cc3s2)c1 [Compound 58, 2-(3,5-Difluorophenyl)-6-fluorobenzo[d]thiazole] | – | – | > 100 | – | loss of inhibition of NQO2 activity

The next lines start with the values.

melting point [°C] | IC50 (recombinant human NQO2; [1]) [µM] | IC50 (recombinant human NQO2; [2]) [µM] | reduction in potency relative to compound 40 (recombinant human NQO2) [fold] | inhibition of NQO2 enzymatic activity, in words (recombinant human NQO2) | Compound
– | 0.123 | 0.123 ± 0.029 | – | – | COc1cc(OC)cc(-c2nc3ccc(C(F)(F)F)cc3s2)c1 [Compound 5, 2-(3,5-Dimethoxyphenyl)-6-(trifluoromethyl)benzo[d]thiazole]
222 to 224 | – | > 100 | – | – | COc1cc(OC)cc(-c2nc3ccc(C#N)cc3s2)c1 [Compound 7, 2-(3,5-Dimethoxyphenyl)benzo[d]thiazole-6-carbonitrile]
138 to 140 | – | 8.44 ± 0.03 | – | further loss of activity | COc1cc(OC)cc(-c2nc3ccc(NC(=O)c4ccccc4)cc3s2)c1 [Compound 13, N-(2-(3,5-Dimethoxyphenyl)benzo[d]thiazol-6-yl)benzamide]
170 to 171 | 33.5 | 33.55 ± 0.02 | – | – | COc1ccc(-c2nc3ccc(Cl)cc3s2)c(OC)c1 [Compound 19, 6-Chloro-2-(2,4-dimethoxyphenyl)benzo[d]thiazole]
135 to 137 | – | 6.71 ± 0.02 | – | – | COc1ccc(OC)c(-c2nc3ccc(Br)cc3s2)c1 [Compound 25, 6-Bromo-2-(2,5-dimethoxyphenyl)benzo[d]thiazole]
– | – | > 100 | – | – | COc1ccc(-c2nc3ccc(C#N)cc3s2)cc1OC [Compound 36, 2-(3,4-Dimethoxyphenyl)benzo[d]thiazole-6-carbonitrile]
– | 22.9 | 22.94 ± 0.02 | – | – | COc1ccc(-c2nc3ccc(I)cc3s2)cc1OC [Compound 38, 2-(3,4-Dimethoxyphenyl)-6-iodobenzo[d]thiazole]
– | 18.4 | 18.36 ± 0.03 | – | – | COc1cc(-c2nc3ccc(C(F)(F)F)cc3s2)cc(OC)c1OC [Compound 42, 6-(Trifluoromethyl)-2-(3,4,5-trimethoxyphenyl)benzo[d]thiazole]
– | > 100 | > 100 | – | – | Fc1ccc(-c2nc3ccc(F)cc3s2)cc1 [Compound 56, 6-Fluoro-2-(4-fluorophenyl)benzo[d]thiazole]
– | 12 | 11.78 ± 0.02 | – | – | COc1ccc2nc(-c3cc(F)cc(F)c3)sc2c1 [Compound 57, 2-(3,5-Difluorophenyl)-6-methoxybenzo[d]thiazole]
